One experiment relates to SK-OV-3. Description: Growth inhibition of human SK-OV-3 cells incubated for 3 days by CellTiter-Glo luminescent assay. Format: functional. Particulars: SK-OV-3, 72 h, time 3 day. (ATP-based viability assays read luminescence as a measure of living cells.)
The test system of the next experiment is OVCAR-3. The experiment can be described thus: Growth inhibition of human OVCAR-3 cells incubated for 3 days by CellTiter-Glo luminescent assay. Format: functional. Particulars: OVCAR-3, 72 h, time 3 day.

A word on the GI50: it is the concentration at which growth is held to half of that of the control. A high value points to lower sensitivity of the cells. Regarding `CC[C@H](C)[C@@H]([C@@H](CC(=O)N1CCC[C@H]1[C@H](OC)[C@@H](C)CC(=O)N[C@H](C)[C@@H](C)c1ccccc1)OC)N(C)C(=O)[C@@H](NC(=O)[C@H](C(C)C)N(C)C(=O)OCc1ccc(NC(=O)[C@H](CCCNC(N)=O)NC(=O)[C@@H](NC(=O)CCCCCN2C(=O)CC(SCC[C@@H](NC(=O)[C@H](Cc3ccc(O)cc3)NC(=O)[C@H](CO)NC(=O)[C@H](Cc3c[nH]c4ccccc34)NC(=O)[C@H](Cc3cnc[nH]3)NC(=O)[C@@H]3CCC(=O)N3)C(=O)N[C@@H](CC(C)C)C(=O)N[C@@H](CCCNC(=N)N)C(=O)N3CCC[C@H]3C(=O)NCC(N)=O)C2=O)C(C)C)cc1)C(C)C` (some centres not stated), the values for the GI50 in the experiment on SK-OV-3 and in the experiment with OVCAR-3 were 453 nM and 4 nM, respectively.

(Values after ChEMBL document CHEMBL6134896, “Recent Advances in Augmenting the Therapeutic Efficacy of Peptide-Drug Conjugates” (2025).)
